Results taken from publication PMC6420642, “Applications and limitations of fitting of the operational model to determine relative efficacies of agonists” (Scientific Reports, 2019).

Columns and labels:
[1] = target: T1, M2_G15 fusion protein (M2 muscarinic receptor fused with the G15 G-protein alpha-subunit) (Homo sapiens, UniProt P08172); experiment: agonist-stimulated […]GTPγS binding, membranes; format: biochemical; design: gene CHRM2; clone #3, except KA from all five clones
T1 sequence (P08172 1-466): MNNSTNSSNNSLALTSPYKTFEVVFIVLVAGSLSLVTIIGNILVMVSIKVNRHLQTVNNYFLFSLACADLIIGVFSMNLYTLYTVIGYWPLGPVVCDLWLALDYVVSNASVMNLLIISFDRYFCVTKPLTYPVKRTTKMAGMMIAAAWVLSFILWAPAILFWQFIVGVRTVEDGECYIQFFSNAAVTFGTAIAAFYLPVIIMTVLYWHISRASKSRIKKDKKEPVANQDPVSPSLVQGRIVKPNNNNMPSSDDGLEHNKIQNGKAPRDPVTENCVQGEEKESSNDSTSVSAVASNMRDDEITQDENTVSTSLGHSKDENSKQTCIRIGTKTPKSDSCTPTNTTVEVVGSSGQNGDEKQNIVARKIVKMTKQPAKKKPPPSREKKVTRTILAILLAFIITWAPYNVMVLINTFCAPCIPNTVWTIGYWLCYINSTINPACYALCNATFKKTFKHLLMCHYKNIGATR
T1 sequence (P30679 1-374 partner): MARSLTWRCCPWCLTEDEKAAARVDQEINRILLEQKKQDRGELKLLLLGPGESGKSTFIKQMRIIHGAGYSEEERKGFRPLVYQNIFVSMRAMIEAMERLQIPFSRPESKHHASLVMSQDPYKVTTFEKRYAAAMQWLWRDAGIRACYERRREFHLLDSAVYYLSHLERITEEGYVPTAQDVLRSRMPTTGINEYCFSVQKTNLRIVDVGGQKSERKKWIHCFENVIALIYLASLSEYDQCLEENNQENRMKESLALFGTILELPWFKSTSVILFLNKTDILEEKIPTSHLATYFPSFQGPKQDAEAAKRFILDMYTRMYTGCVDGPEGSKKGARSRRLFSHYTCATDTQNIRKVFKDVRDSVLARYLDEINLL

[2] = target: T1, M2_G15 fusion protein (M2 muscarinic receptor fused with the G15 G-protein alpha-subunit); experiment: biochemical; design: gene CHRM2
[3] = target: T2, M4_G15 fusion protein (M4 muscarinic receptor fused with the G15 G-protein alpha-subunit) (Homo sapiens, UniProt P08173); experiment: agonist-stimulated […]GTPγS binding, membranes; format: biochemical; design: gene CHRM4; M4 fused via ARATR linker to N-terminus of G15 alpha-subunit (one fused chain); clone #3, except KA from all five clones
T2 sequence (P08173 1-479): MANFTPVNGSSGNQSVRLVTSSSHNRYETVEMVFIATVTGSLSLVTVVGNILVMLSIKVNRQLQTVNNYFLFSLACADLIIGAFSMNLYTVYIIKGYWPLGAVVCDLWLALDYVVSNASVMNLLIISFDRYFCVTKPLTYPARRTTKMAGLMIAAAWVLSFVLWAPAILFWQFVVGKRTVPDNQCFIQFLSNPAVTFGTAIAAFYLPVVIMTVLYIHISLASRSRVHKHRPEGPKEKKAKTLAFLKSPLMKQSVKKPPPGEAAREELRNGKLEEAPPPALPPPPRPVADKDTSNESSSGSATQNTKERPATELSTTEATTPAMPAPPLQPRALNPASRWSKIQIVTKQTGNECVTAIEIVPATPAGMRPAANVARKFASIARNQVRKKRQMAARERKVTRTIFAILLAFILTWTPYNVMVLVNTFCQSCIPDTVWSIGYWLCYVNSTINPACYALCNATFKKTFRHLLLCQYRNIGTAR
T2 sequence (P30679 1-374 partner): T1 sequence (P30679 1-374 partner)

[4] = target: T2, M4_G15 fusion protein (M4 muscarinic receptor fused with the G15 G-protein alpha-subunit); experiment: biochemical; design: gene CHRM4

Row | pEC50 ([1]; clone #[…], agonist; […] […]GTPγS, […] GDP, […] MgCl2, […] °C) | Compound | EC50 [1] [nM] | Ki [2] [nM] | EC50 [3] [nM] | Ki [4] [nM]
1 | 6.84 ± 0.03 | Clc1ccc2c(c1)N=C(N1CCNCC1)c1ccccc1N2 [NDMC] |  |  |  | 
2 |  | O=C1CCCN1CC#CCN1CCCC1 [oxotremorine] | 18.6 | 1660 | 17 | 1480
